Data published in patent US6855513B1 (priority 1999, dated 2005).

How the values were obtained:
[1] = test system: qsc100 (Peptide synthetase); test: Acyl-HSL induction of β-galactosidase in qsc100 mutant; format: cell-based, Pseudomonas aeruginosa; details: qsc100, Class I; 3OC12-HSL 2 μM, C4-HSL 5 μM
qsc101 = test: Acyl-HSL induction of β-galactosidase in qsc101 mutant; format: cell-based, Pseudomonas aeruginosa; details: qsc101, Class I; 3OC12-HSL 2 μM, C4-HSL 5 μM
qsc102 = test: Acyl-HSL induction of β-galactosidase in qsc102 mutant; format: cell-based, Pseudomonas aeruginosa; details: for Signal response (β-galactosidase activity with signal(s) divided by activity without added signals), maximum: qsc102, Class I, 3OC12-HSL 2 μM, C4-HSL 5 μM
Method: (§1) E. coli and P. aeruginosa were routinely grown in Luria-Bertani (LB) broth or LB agar (Sambrook, et al. (1989) Molecular Cloning: a Laboratory Manual. (Cold Spring Harbor Laboratory, Cold Spring Harbor, N.Y.)), supplemented with antimicrobial agents when necessary. The antimicrobial agents were used at the following concentrations: HgCl2, 15 μg/ml in agar and 7.5 μg/ml in broth; nalidixic acid 20 μg/ml; carbenicillin, 300 μg/ml; tetracycline, 50 μg/ml for P. aeruginosa and 20 μg/ml for E. coli; and gentamicin, 100 μg/ml for P. aeruginosa and 15 μg/ml for E. coli. Synthetic acyl-HSL concentrations were 2 μM for 3OC12-HSL and 5 μM for C4-HSL, and 5-bromo4-chloro-3-indolyl-β-D-galactopyranoside (X-Gal) was used at 50 μg/ml.
Patterns of Acyl-HSL Induction of β-galactosidase Activity in qsc Mutants. The pattern of β-galactosidase expression was examined in response to acyl-HSLs in each of 47 qsc mutants identified in the initial screen. Each mutant was grown in 1 ml of MOPS (50 mM, pH 7.0) buffered LB broth containing one, the other, both, or neither acyl-HSL signal in an 18 mm culture tube at 37° C. with shaking. A mid-logarithmic phase culture was used as an inoculum and initial optical densities (ODs) at 600 nm were 0.1. Growth was monitored as OD at 600 nm and β-galactosidase activity was measured in 0.1 ml samples taken at 0, 2, 5, and 9 hours after inoculation.
One assay used the P. aeruginosa strain QSC102 (Table 3), which responds to the presence of exogenous 3-oxo-C12-HSL by inducing β-galactosidase activity up to 400-fold (Example 1). Cells were grown in the presence of a minimal concentration of 3-oxo-C12-HSL and in the presence and absence of the test compound. If the test compound interferes with signal reception, β-galactosidase activity is reduced. Interference can be a result of any of several mechanisms. The simplest is, if the test compound prevents the 3oxo-C12-HSL from binding to LasR. Alternatively, the test compound may prevent LasR from binding to DNA or interacting productively with RNA polymerase.

qsc103 = test: Acyl-HSL induction of β-galactosidase in qsc103 mutant; format: cell-based, Pseudomonas aeruginosa; details: qsc103, Class I; 3OC12-HSL 2 μM, C4-HSL 5 μM
[2] = test system: qsc113 (Trransmembrane protein); test: Acyl-HSL induction of β-galactosidase in qsc113 mutant; format: cell-based, Pseudomonas aeruginosa; details: qsc113, Class II; 3OC12-HSL 2 μM, C4-HSL 5 μM
qsc116 = test: Acyl-HSL induction of β-galactosidase in qsc116 mutant; format: cell-based, Pseudomonas aeruginosa; details: qsc116, Class II; 3OC12-HSL 2 μM, C4-HSL 5 μM
[3] = test system: qcs117 (ACP-like protein); test: Acyl-HSL induction of β-galactosidase in qcs117 mutant; format: cell-based, Pseudomonas aeruginosa; details: qcs117, Class III; 3OC12-HSL 2 μM, C4-HSL 5 μM
[4] = test system: qsc121 (3-Oxoacyl ACP synthase); test: Acyl-HSL induction of β-galactosidase in qsc121 mutant; format: cell-based, Pseudomonas aeruginosa; details: qsc121, Class III; 3OC12-HSL 2 μM, C4-HSL 5 μM
[5] = test system: qsc124A&B (Pyoverdine synthetase D); test: Acyl-HSL induction of β-galactosidase in qsc124A&B mutants; format: cell-based, Pseudomonas aeruginosa; details: Class III, 3OC12-HSL 2 μM, C4-HSL 5 μM
[6] = test system: qsc125 (Zeaxanthin synthesis); test: Acyl-HSL induction of β-galactosidase in qsc125 mutant; format: cell-based, Pseudomonas aeruginosa; details: qsc125, Class III; 3OC12-HSL 2 μM, C4-HSL 5 μM
[7] = test system: qsc130 (glc operon transcriptional activator); test: Acyl-HSL induction of β-galactosidase in qsc130 mutant; format: cell-based, Pseudomonas aeruginosa; details: qsc130, Class III; 3OC12-HSL 2 μM, C4-HSL 5 μM
[8] = test system: qsc137 (Asparagine synthetase); test: Acyl-HSL induction of β-galactosidase in qsc137 mutant; format: cell-based, Pseudomonas aeruginosa; details: qsc137, Class IV; 3OC12-HSL 2 μM, C4-HSL 5 μM
[9] = test system: lasB-lacZ chromosomal fusion; test: Acyl-HSL response of lasB-lacZ chromosomal fusion in P. aeruginosa PAO-MW1; format: cell-based, Pseudomonas aeruginosa; details: late response
Method: as §1
A mutant strain, P. aeruginosa PAO-MW 10, which contains a lacZ reporter in the chromosomal lasB gene was constructed by introduction of pMW300 into PAO-MW1 by triparental mating as described above. Exconjugants resistant to gentamicin and sensitive to chloramphenicol were selected as potential recombinants.
Patterns of Acyl-HSL Induction of β-galactosidase Activity in qsc Mutants. The pattern of β-galactosidase expression was examined in response to acyl-HSLs in each of 47 qsc mutants identified in the initial screen. […] Growth was monitored as OD at 600 nm and β-galactosidase activity was measured in 0.1 ml samples taken at 0, 2, 5, and 9 hours after inoculation.

[10] = test system: quorum sensing signaling (Las system), QSC102 lacZ; test: Two-strain (PAO1 / QSC102) screening assay for quorum sensing inhibiting compounds; format: cell-based, Pseudomonas aeruginosa; details: β-galactosidase / blue color on X-gal
Method: In this example, the screening assay used two strains of P. aeruginosa: a wild type P. aeruginosa (PAO1) and QSC102, from Example 1 (see FIG. 8). This assay will detect inhibition of all aspects of quorum sensing signaling, e.g., signal generation and signal reception.
Microtiter plates are prepared by adding 200 μL Luria Broth (“LB”) agar, containing 0.008% 5-bromo-4-chloro-3-indolyl-β-D-galactose (X-gal) to each well. Overnight cultures of PAO1 and QSC102 are subcultured in LB to a starting absorbance at 600 nm (“A600”) of 0.05 and grown at 37° C to an A600 of 1.0. PAO1 is diluted 2.5×10^5-fold in LB and 5 μL of this is applied to the surface of the LB agar in each well. Plates are then dried in a laminar flow hood for 60 minutes. A tenfold dilution of QSC102 in LB is used to inoculate each well using a replicator. Plates are then sealed and incubated at 37° C for 40 hours. Growth and color development are evaluated visually and the data is recorded with a camera.
The test compound was present in a microtiter well and overlaid with LB agar and 5-bromo-4-chloro-3-indolyl-β-D-galactose (X-gal). Both strains were spotted on the agar in each well. […] Inhibition of signaling was evaluated qualitatively by the absence or weakening of the blue color development.

[11] = test system: qsc122A&B (Cytochrome p450); details: Class III, 3OC12-HSL 2 μM, C4-HSL 5 μM
[12] = test system: P. aeruginosa lasI mutant biofilm; details: flow-through chamber; resistance to 0.2% sodium dodecyl sulfate; cited from earlier work

CCCCCCCCCC(=O)CC(=O)N[C@H]1CCOC1=O [3OC12-HSL, N-(3-oxododecanoyl) homoserine lactone]
Signal response (β-galactosidase activity with signal(s) divided by activity without added signals), maximum [1]: 65 | Signal response (β-galactosidase activity with signal(s) divided by activity without added signals), maximum (qsc101): 145 | Signal response (β-galactosidase activity with signal(s) divided by activity without added signals), maximum (qsc102): 350 | Induction of β-galactosidase activity (qsc102; strain QSC102, exogenous signal): up to 400 fold | Signal response (β-galactosidase activity with signal(s) divided by activity without added signals), maximum (qsc103): 85 | Signal response (β-galactosidase activity with signal(s) divided by activity without added signals), maximum [2]: 5 | Signal response (β-galactosidase activity with signal(s) divided by activity without added signals), maximum (qsc116): 5 | Signal response (β-galactosidase activity with signal(s) divided by activity without added signals), maximum [3]: 22 | Signal response (β-galactosidase activity with signal(s) divided by activity without added signals), maximum [4]: 13 | Signal response (β-galactosidase activity with signal(s) divided by activity without added signals), maximum [5]: 35 | Signal response (β-galactosidase activity with signal(s) divided by activity without added signals), maximum [6]: 20 | Signal response (β-galactosidase activity with signal(s) divided by activity without added signals), maximum [7]: 5 | Signal response (β-galactosidase activity with signal(s) divided by activity without added signals), maximum [8]: 1 | Stimulation of lasB-lacZ fusion over background [9]: 3 fold | Response of the QSC102 lacZ fusion to the signal [10]: responded by turning blue | Signal response (β-galactosidase activity with signal(s) divided by activity without added signals), maximum [11]: 2 | Biofilm phenotype after adding signal back to lasI mutant cells [12]: wild type phenotype was restored

CCCC(=O)N[C@H]1CCOC1=O [C4-HSL, butanoyl-HSL]
Signal response (β-galactosidase activity with signal(s) divided by activity without added signals), maximum [1]: 3 | Signal response (β-galactosidase activity with signal(s) divided by activity without added signals), maximum (qsc101): 1 | Signal response (β-galactosidase activity with signal(s) divided by activity without added signals), maximum (qsc102): 1 | Signal response (β-galactosidase activity with signal(s) divided by activity without added signals), maximum (qsc103): 1 | Signal response (β-galactosidase activity with signal(s) divided by activity without added signals), maximum [2]: 1 | Signal response (β-galactosidase activity with signal(s) divided by activity without added signals), maximum (qsc116): 1 | Signal response (β-galactosidase activity with signal(s) divided by activity without added signals), maximum [3]: 22 | Signal response (β-galactosidase activity with signal(s) divided by activity without added signals), maximum [4]: 27 | Signal response (β-galactosidase activity with signal(s) divided by activity without added signals), maximum [5]: 50 | Signal response (β-galactosidase activity with signal(s) divided by activity without added signals), maximum [6]: 65 | Signal response (β-galactosidase activity with signal(s) divided by activity without added signals), maximum [7]: 1 | Signal response (β-galactosidase activity with signal(s) divided by activity without added signals), maximum [8]: 1 | Response of the QSC102 lacZ fusion to the signal [10]: did not respond | Signal response (β-galactosidase activity with signal(s) divided by activity without added signals), maximum [11]: 10
